{"source": "patent US9422302B2", "about": "(priority 2013, dated 2016)", "key": {"δ receptor": {"molecular_target": "δ receptor (Rattus norvegicus, UniProt P33533)", "sequence (P33533 whole entry)": "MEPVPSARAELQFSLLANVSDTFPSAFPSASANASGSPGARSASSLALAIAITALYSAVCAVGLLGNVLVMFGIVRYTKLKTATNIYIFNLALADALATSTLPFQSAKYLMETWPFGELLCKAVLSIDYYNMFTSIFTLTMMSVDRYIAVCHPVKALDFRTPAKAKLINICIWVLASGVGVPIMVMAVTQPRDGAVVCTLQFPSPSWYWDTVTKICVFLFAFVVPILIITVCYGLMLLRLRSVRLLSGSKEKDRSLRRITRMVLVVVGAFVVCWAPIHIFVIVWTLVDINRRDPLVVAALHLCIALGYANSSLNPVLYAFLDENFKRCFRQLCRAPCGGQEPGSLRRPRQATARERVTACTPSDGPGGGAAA", "details": "cited from earlier work"}, "Male, Swiss-Webster mice [1]": {"test_system": "Male, Swiss-Webster mice", "test": "Hot plate antinociceptive testing (acute, antagonist and tolerance paradigms)", "type": "in vivo", "details": "for Antinociceptive tolerance development vs. Day 1, hot plate: 15 mg/kg s.c. twice daily for five days, latencies 30 min after administration; for ED50: Mus musculus, sc; for Effect of antagonist pretreatment on UMB 425 antinociception, hot plate: naloxone 1 mg/kg i.p. −30 min or nor-BNI 30 mg/kg i.p. −24 h before UMB 425 15 mg/kg s.c., 30 min"}, "Male, Swiss-Webster mice [2]": {"test_system": "Male, Swiss-Webster mice", "test": "Tail-flick antinociceptive testing (acute, antagonist and tolerance paradigms)", "type": "in vivo", "details": "for Antinociceptive tolerance development vs. Day 1, tail-flick: 15 mg/kg s.c. twice daily for five days, latencies 30 min after administration; for ED50: Mus musculus, sc; for Effect of antagonist pretreatment on UMB 425 antinociception, tail-flick: naloxone 1 mg/kg i.p. −30 min or nor-BNI 30 mg/kg i.p. −24 h before UMB 425 15 mg/kg s.c., 30 min"}, "human δ opioid receptor [3]": {"molecular_target": "T1, human δ opioid receptor (Homo sapiens, UniProt P41143)", "T1 sequence (P41143 whole entry)": "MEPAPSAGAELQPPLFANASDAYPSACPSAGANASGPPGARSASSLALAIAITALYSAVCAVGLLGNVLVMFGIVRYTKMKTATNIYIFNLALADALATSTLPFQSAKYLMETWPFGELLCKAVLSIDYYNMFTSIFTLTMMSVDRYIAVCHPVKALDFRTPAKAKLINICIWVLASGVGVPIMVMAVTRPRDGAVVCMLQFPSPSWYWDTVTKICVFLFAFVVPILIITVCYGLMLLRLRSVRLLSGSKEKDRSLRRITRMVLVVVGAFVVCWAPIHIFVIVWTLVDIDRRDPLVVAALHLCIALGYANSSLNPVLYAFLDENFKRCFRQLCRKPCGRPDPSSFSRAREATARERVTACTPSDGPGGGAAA", "details": "ref (32); cited from earlier work"}, "human μ opioid receptor [4]": {"molecular_target": "T2, human μ opioid receptor (Homo sapiens, UniProt P35372)", "T2 construct": "expressed in transfected cells; host or cells: CHO cells (membranes)", "T2 sequence (P35372 whole entry)": "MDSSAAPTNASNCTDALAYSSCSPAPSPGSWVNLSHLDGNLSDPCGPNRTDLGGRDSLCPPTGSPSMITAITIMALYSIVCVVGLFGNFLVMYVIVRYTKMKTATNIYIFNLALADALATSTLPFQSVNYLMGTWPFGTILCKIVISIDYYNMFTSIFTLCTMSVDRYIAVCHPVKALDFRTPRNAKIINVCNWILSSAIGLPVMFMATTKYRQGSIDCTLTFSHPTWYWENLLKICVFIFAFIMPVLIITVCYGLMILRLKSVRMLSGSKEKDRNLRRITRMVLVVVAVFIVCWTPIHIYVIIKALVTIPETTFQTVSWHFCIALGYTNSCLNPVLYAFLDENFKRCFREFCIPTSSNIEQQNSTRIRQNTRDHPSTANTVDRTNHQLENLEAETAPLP", "test": "biochemical", "type": "binding"}, "human κ opioid receptor [5]": {"molecular_target": "T3, human κ opioid receptor (Homo sapiens, UniProt P41145)", "T3 construct": "expressed in transfected cells; host or cells: CHO cells (membranes)", "T3 sequence (P41145 whole entry)": "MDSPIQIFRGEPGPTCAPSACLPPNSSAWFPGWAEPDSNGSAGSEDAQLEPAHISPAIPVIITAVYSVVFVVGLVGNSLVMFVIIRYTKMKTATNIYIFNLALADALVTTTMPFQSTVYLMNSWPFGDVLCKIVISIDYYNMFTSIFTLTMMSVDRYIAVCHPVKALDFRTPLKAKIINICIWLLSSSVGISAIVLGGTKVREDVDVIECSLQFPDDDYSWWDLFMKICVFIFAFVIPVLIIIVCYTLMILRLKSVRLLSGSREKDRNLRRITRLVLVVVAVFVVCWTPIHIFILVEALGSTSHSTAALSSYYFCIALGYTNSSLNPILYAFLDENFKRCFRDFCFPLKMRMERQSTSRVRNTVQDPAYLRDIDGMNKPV", "test": "biochemical", "type": "binding"}, "human μ opioid receptor [6]": {"molecular_target": "T2, human μ opioid receptor", "test": "biochemical"}, "human κ opioid receptor [7]": {"molecular_target": "T3, human κ opioid receptor", "test": "[35S]GTPγS functional assay, hKOR-CHO membranes", "type": "biochemical", "details": "CHO cell membranes, n/e=no effect"}, "human δ opioid receptor [8]": {"molecular_target": "T1, human δ opioid receptor", "test": "Opioid receptor binding, [3H]DPDPE competition in hDOR-CHO membranes", "set-up": "expressed in transfected cells; host or cells: CHO cells (membranes)"}, "human δ opioid receptor [9]": {"molecular_target": "T1, human δ opioid receptor", "test": "[35S]GTPγS functional assay, hDOR-CHO membranes (agonism; antagonism of DPDPE, Schild plot)", "type": "biochemical", "set-up": "expressed in transfected cells; host or cells: CHO cells (membranes)"}, "[10]": {"details": "0.5 h, read-out: ED50 Hot Plate, acute treatment paradigm"}, "[11]": {"details": "read-out: ED50 Hot Plate, Tolerance"}, "[12]": {"details": "0.5 h, read-out: ED50 Tail-Flick, acute treatment paradigm"}, "[13]": {"details": "read-out: ED50 Tail-Flick, Tolerance"}, "[14]": {"details": "acute vs. tolerance treatment paradigms"}}}
{"smiles": "O=C1/C(=C/c2ccccc2)C[C@@]2(O)[C@H]3Cc4ccc(O)c5c4[C@@]2(CCN3CC2CC2)[C@H]1O5", "note": "[(E)-BNTX, (E)-benzylidenenaltrexone]", "values": [{"measurement": "Relative % Emax Experimental", "setting": "δ receptor", "value": 0.00}]}
{"smiles": "CN1CC[C@]23c4c5ccc(O)c4O[C@H]2[C@@H](O)C=C[C@H]3[C@H]1C5", "note": "[Morphine, reference compound]", "values": [{"measurement": "Antinociceptive tolerance development vs. Day 1, hot plate", "setting": "Male, Swiss-Webster mice [1]", "value": "significantly decreased antinociceptive activity on Day 4 and 5"}, {"measurement": "ED50", "setting": "Male, Swiss-Webster mice [1]; [10]", "value": 2.73, "unit": "mg/kg"}, {"measurement": "ED50", "setting": "Male, Swiss-Webster mice [1]; [11]", "value": 21.3, "unit": "mg/kg"}, {"measurement": "Antinociceptive tolerance development vs. Day 1, tail-flick", "setting": "Male, Swiss-Webster mice [2]", "value": "significantly decreased antinociceptive activity on Day 4 and 5"}, {"measurement": "ED50", "setting": "Male, Swiss-Webster mice [2]; [12]", "value": 6.85, "unit": "mg/kg"}, {"measurement": "ED50", "setting": "Male, Swiss-Webster mice [2]; [13]", "value": 44.1, "unit": "mg/kg"}]}
{"smiles": "Oc1ccc2c3c1O[C@H]1c4[nH]c5ccccc5c4C[C@@]4(O)[C@@H](C2)N(CC2CC2)CC[C@]314", "note": "[Naltrindole]", "values": [{"measurement": "Relative % Emax Experimental", "setting": "δ receptor", "value": 0.00}, {"measurement": "pA2 δ (literature)", "setting": "human δ opioid receptor [3]", "value": 10.92}]}
{"smiles": "CN1CC[C@]23c4c5ccc(O)c4O[C@H]2c2[nH]c4ccccc4c2C[C@@]3(O)[C@H]1C5", "note": "[Oxymorphindole]", "values": [{"measurement": "Relative % Emax Experimental", "setting": "δ receptor", "value": 0.12}]}
{"smiles": "CN1CC[C@]23c4c5ccc(O)c4O[C@H]2C(=O)C2(Cc4ccccc4C2)C[C@@]3(O)[C@H]1C5", "note": "[SIOM, 7-spiroindanyloxymorphone]", "values": [{"measurement": "Relative % Emax Experimental", "setting": "δ receptor", "value": 0.18}]}
{"smiles": "CN1CCC23c4c5ccc(O)c4OC2(CO)C(=O)CCC3(O)C1C5", "note": "(stereo not drawn) [UMB 425, 4a,9-dihydroxy-7a-(hydroxymethyl)-3-methyl-2,3,4,4a,5,6-hexahydro-1H-4,12-methanobenzofuro[3,2-e]isoquinolin-7(7aH)-one]", "values": [{"measurement": "Ki", "setting": "human μ opioid receptor [4]", "value": "3.2 ± 0.14", "unit": "nM"}, {"measurement": "Ki", "setting": "human κ opioid receptor [5]", "value": "212 ± 21", "unit": "nM"}, {"measurement": "κ/μ binding affinity ratio", "setting": "human κ opioid receptor [5]", "value": 66}, {"measurement": "% Emax μ", "setting": "human μ opioid receptor [6]", "value": "73±7.3", "unit": "%"}, {"measurement": "EC50", "setting": "human μ opioid receptor [6]", "value": "35 ± 3.7", "unit": "nM"}, {"measurement": "Emax", "setting": "human μ opioid receptor [6]; read-out: % Emax ± S.E.M. μ", "value": "73 ± 7.3", "unit": "%"}, {"measurement": "EC50 ± S.E.M. κ (agonist activity)", "setting": "human κ opioid receptor [7]", "value": "no significant agonist activity and n/e"}, {"measurement": "Antinociceptive tolerance development vs. Day 1, hot plate", "setting": "Male, Swiss-Webster mice [1]", "value": "significantly decreased antinociceptive activity on Day 4 and 5"}, {"measurement": "Antinociceptive activity compared with morphine in tolerance paradigm, hot plate", "setting": "Male, Swiss-Webster mice [1]; Day 4 and 5, 15 mg/kg s.c. twice daily", "value": "statistically greater antinociceptive activity than morphine"}, {"measurement": "ED50", "setting": "Male, Swiss-Webster mice [1]; [10]", "value": 4.3, "unit": "mg/kg"}, {"measurement": "ED50", "setting": "Male, Swiss-Webster mice [1]; [11]", "value": 13, "unit": "mg/kg"}, {"measurement": "Shift in ED50, Hot Plate", "setting": "Male, Swiss-Webster mice [1]; [14]", "value": 3.0, "unit": "fold"}, {"measurement": "Reduction in ED50 shift compared to morphine, hot plate", "setting": "Male, Swiss-Webster mice [1]; tolerance paradigm", "value": 2.6, "unit": "fold"}, {"measurement": "Antinociceptive tolerance development vs. Day 1, tail-flick", "setting": "Male, Swiss-Webster mice [2]", "value": "n.s."}, {"measurement": "Antinociceptive activity compared with morphine in tolerance paradigm, tail-flick", "setting": "Male, Swiss-Webster mice [2]; Day 5, 15 mg/kg s.c. twice daily", "value": "statistically greater antinociceptive activity than morphine"}, {"measurement": "ED50", "setting": "Male, Swiss-Webster mice [2]; [12]", "value": 8.83, "unit": "mg/kg"}, {"measurement": "ED50", "setting": "Male, Swiss-Webster mice [2]; [13]", "value": 11.6, "unit": "mg/kg"}, {"measurement": "Shift in ED50, Tail-Flick", "setting": "Male, Swiss-Webster mice [2]; [14]", "value": 1.3, "unit": "fold"}, {"measurement": "Reduction in ED50 shift compared to morphine, tail-flick", "setting": "Male, Swiss-Webster mice [2]; tolerance paradigm", "value": 4.9, "unit": "fold"}, {"measurement": "Ki", "setting": "human δ opioid receptor [8]", "value": "208 ± 18", "unit": "nM"}, {"measurement": "δ/μ binding affinity ratio", "setting": "human δ opioid receptor [8]; ratio of Ki values", "value": 65}, {"measurement": "Kb", "setting": "human δ opioid receptor [9]", "value": 759, "unit": "nM"}, {"measurement": "pA2 δ", "setting": "human δ opioid receptor [9]; Schild plot, DPDPE dose-response curves with 200 nM, 600 nM, 2 μM UMB 425", "value": 6.12}, {"measurement": "EC50 ± S.E.M. δ (agonist activity)", "setting": "human δ opioid receptor [9]; [35S]GTPγS, CHO cell membranes, n/e=no effect", "value": "no significant agonist activity and n/e"}]}
{"smiles": "C=CCN1CC[C@]23c4c5ccc(O)c4O[C@H]2C(=O)CC[C@@]3(O)[C@H]1C5", "note": "[naloxone, reference compound]", "values": [{"measurement": "Effect of antagonist pretreatment on UMB 425 antinociception, hot plate", "setting": "Male, Swiss-Webster mice [1]", "value": "significantly attenuated UMB 425-mediated antinociception"}, {"measurement": "Effect of antagonist pretreatment on UMB 425 antinociception, tail-flick", "setting": "Male, Swiss-Webster mice [2]", "value": "significantly attenuated UMB 425-mediated antinociception"}]}
{"smiles": "Oc1ccc2c3c1O[C@H]1c4[nH]c5c(c4C[C@@]4(O)[C@@H](C2)N(CC2CC2)CC[C@]314)C[C@@]1(O)[C@H]2Cc3ccc(O)c4c3[C@@]1(CCN2CC1CC1)[C@H]5O4", "note": "[nor-BNI, norbinaltorphimine, reference compound]", "values": [{"measurement": "Effect of antagonist pretreatment on UMB 425 antinociception, hot plate", "setting": "Male, Swiss-Webster mice [1]", "value": "failed to significantly attenuate UMB 425-mediated antinociception"}, {"measurement": "Effect of antagonist pretreatment on UMB 425 antinociception, tail-flick", "setting": "Male, Swiss-Webster mice [2]", "value": "failed to significantly attenuate UMB 425-mediated antinociception"}]}
